Assay results taken from ChEMBL document CHEMBL3102761, “Discovery of Clinical Candidate GSK1842799 As a Selective S1P1 Receptor Agonist (Prodrug) for Multiple Sclerosis” (ACS Med Chem Lett, 2013).
pEC50: −log10 of the molar value. Converted amounts (≈) assume the structure as drawn. The source made the active and inactive calls. The calls are words filed in the database; no cut-off is given here.

What was measured:
[1] = target: T1, Sphingosine 1-phosphate receptor 1 (Homo sapiens, UniProt P21453); assay: Agonist activity at S1P1R (unknown origin) assessed as [33P] binding activity
[2] = target: T2, Sphingosine 1-phosphate receptor 3 (Homo sapiens, UniProt Q99500); assay: Agonist activity at S1P3R (unknown origin) assessed as [33P] binding activity
Target sequence in this assay (Q99500 whole entry, looked up): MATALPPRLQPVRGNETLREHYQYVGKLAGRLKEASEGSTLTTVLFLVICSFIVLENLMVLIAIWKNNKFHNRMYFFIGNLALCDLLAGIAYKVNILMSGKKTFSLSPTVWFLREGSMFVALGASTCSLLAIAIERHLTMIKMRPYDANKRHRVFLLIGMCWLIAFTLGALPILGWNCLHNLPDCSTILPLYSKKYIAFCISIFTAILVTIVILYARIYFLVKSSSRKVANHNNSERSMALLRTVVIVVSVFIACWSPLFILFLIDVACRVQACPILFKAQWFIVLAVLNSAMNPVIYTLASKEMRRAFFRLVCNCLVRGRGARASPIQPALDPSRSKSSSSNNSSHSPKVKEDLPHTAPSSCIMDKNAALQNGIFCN

Homo sapiens [3] = organism: Homo sapiens; assay: Selectivity ratio for S1P3R (unknown origin) to S1P1R (unknown origin)
[4] = target: T2, Sphingosine 1-phosphate receptor 3; assay: Agonist activity at human S1P3R expressed in HEK293T cells assessed as [35S]GTPgammaS binding after 30 mins by scintillation counting; type: functional, cell-based, HEK-293T
Target sequence in this assay (Q99500 whole entry): as the sequence (Q99500 whole entry, looked up) above

[5] = target: Sphingosine 1-phosphate receptor 5 (Homo sapiens, UniProt Q9H228); assay: Agonist activity at human S1P5R expressed in HEK293T cells assessed as [35S]GTPgammaS binding after 30 mins by scintillation counting; type: functional, cell-based, HEK-293T
[6] = target: T1, Sphingosine 1-phosphate receptor 1; assay: Agonist activity at human S1P1R expressed in HEK293T cells assessed as [35S]GTPgammaS binding after 30 mins by scintillation counting; type: functional, cell-based, HEK-293T
[7] = target: T3, Sphingosine 1-phosphate receptor 4 (Homo sapiens, UniProt O95977); assay: Agonist activity at human S1P4R expressed in HEK293T cells assessed as [35S]GTPgammaS binding after 30 mins by scintillation counting; type: functional, cell-based, HEK-293T
T3 sequence (O95977 whole entry): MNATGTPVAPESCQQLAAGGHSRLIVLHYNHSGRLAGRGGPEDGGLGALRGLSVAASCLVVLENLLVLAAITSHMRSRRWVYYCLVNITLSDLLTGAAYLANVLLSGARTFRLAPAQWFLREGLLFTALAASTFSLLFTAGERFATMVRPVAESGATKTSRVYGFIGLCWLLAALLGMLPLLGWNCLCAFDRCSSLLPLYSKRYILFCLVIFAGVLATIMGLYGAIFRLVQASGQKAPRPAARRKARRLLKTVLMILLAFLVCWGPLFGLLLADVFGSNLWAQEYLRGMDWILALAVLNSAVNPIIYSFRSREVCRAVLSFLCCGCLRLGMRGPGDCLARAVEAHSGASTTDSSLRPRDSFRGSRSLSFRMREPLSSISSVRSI

Mus musculus [8] = assay: Induction of lymphopenia in C57BL/6 mouse at 10 mg/kg, po at 6 hrs post-dose
Homo sapiens [9] = organism: Homo sapiens; assay: Selectivity ratio of EC50 for S1P3R (unknown origin) to EC50 for S1P1R (unknown origin)
Cynomolgus monkey = assay: Induction of […] in po dosed cynomolgus monkey; type: functional, Macaca fascicularis
[10] = Cmax in cynomolgus monkey at 3.8 mg/kg, po administered as single dose; type: ADME, organism-based, Macaca fascicularis; set-up: dose 3.8 mg/kg, route oral; conditions: in vivo
[11] = Inhibition of CYP450 (unknown origin); type: ADME; conditions: human
Liver microsome [12] = assay: Metabolic stability in rat liver microsomes; type: ADME
Liver microsome [13] = assay: Metabolic stability in dog liver microsomes; type: ADME, Canis lupus familiaris
[14] = Metabolic stability in cynomolgus monkey liver microsomes; type: ADME, Macaca fascicularis, Microsome
Plasma [15] = assay: Plasma concentration in rat assessed as phosphorylated compound at 3 mg/kg, po administered as single dose; type: ADME, organism-based; set-up: dose 3 mg/kg, route oral; conditions: in vivo
Mus musculus [16] = assay: Induction of lymphopenia in C57BL/6 mouse at 0.1 mg/kg, po at 6 hrs post-dose relative to vehicle-treated control; type: functional, organism-based; set-up: dose 0.1 mg/kg
Mus musculus [17] = assay: Induction of lymphopenia in po dosed C57BL/6 mouse measured at 6 hrs post-dose relative to vehicle-treated control; type: functional, organism-based
Plasma [18] = assay: Plasma concentration in cynomolgus monkey assessed as phosphorylated compound at 3.8 mg/kg, po administered as single dose; type: ADME, organism-based, Macaca fascicularis; set-up: dose 3.8 mg/kg, route oral; conditions: in vivo
Caco-2 = assay: Permeability across human Caco2 cells; type: ADME, cell-based
[19] = Aqueous solubility of the compound; type: physicochemical; conditions: buffer
Plasma [20] = assay: Plasma concentration in dog assessed as phosphorylated compound at 5 mg/kg, po administered as single dose; type: ADME, organism-based, Canis lupus familiaris; set-up: dose 5 mg/kg, route oral; conditions: in vivo
Liver microsome [21] = assay: Metabolic stability in human liver microsomes; type: ADME
Mus musculus [22] = assay: Reduction in clinical symptoms in MOG peptide experimental autoimmune encephalitis (EAE) mouse multiple sclerosis disease model at 3 mg/kg, po qd; type: functional, organism-based; set-up: dose 3 mg/kg
Homo sapiens [23] = organism: Homo sapiens; assay: Selectivity ratio for human Sphk1 to human Sphk2

T1 sequence (P21453 whole entry): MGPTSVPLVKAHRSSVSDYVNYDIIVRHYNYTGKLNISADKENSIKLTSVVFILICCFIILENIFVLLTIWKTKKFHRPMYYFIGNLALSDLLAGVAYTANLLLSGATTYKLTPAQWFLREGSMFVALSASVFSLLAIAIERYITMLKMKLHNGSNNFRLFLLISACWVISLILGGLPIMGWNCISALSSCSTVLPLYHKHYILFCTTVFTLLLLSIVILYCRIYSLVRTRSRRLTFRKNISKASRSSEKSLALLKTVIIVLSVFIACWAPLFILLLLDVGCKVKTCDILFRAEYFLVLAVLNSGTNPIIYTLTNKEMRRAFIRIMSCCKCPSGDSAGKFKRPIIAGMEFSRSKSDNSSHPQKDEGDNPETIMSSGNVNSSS
Chain of Sphingosine 1-phosphate receptor 5 (Q9H228 whole entry): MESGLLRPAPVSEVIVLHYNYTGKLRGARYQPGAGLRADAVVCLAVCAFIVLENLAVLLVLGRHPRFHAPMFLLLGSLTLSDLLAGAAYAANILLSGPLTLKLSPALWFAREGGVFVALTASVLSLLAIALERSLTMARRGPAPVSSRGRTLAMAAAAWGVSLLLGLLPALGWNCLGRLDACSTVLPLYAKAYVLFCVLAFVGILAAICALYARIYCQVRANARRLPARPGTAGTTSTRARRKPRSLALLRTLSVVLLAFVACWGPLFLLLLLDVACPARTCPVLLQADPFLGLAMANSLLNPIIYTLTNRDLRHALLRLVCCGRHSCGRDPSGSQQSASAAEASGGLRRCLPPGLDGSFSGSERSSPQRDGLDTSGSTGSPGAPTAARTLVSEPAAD

Row | Compound | Activity [1] [nM] | Activity [2] [µM] | Selectivity ratio (Homo sapiens [3]) | further results
1 | NC(CO)(COP(=O)(O)O)c1nc(-c2ccc(OCc3ccc(-c4ccccc4)cc3)c(C(F)(F)F)c2)c[nH]1 (centres undefined) | 2.3 | > 10 | > 4350 | 
2 | CCCCCCCCOc1ccc(-c2cc([C@@](C)(N)COP(=O)(O)O)on2)cc1C(F)(F)F | 0.14 | 0.17 | 1210 | 
3 | C[C@](N)(COP(=O)(O)O)c1nc(-c2ccc(OCc3ccc(-c4ccccc4)cc3)c(C(F)(F)F)c2)c[nH]1 | 0.83 | 7.35 | 8860 | 
4 | CCCCCCCCOc1ccc(-c2nnc([C@@](C)(N)COP(=O)(O)O)s2)cc1C(F)(F)F | 0.52 | 1.9 | 3290 | pEC50 [4]: < 5.52; pEC50 [5]: 9.18; pEC50 [6]: 9.59; pEC50 [7]: 8.34; Activity (Mus musculus [8]): 119%; Ratio EC50 (Homo sapiens [9]): > 11500
5 | C[C@](N)(COP(=O)(O)O)c1ncc(-c2ccc(OCc3ccc(-c4ccccc4)cc3)c(C(F)(F)F)c2)s1 | 0.73 | 0.867 | 1190 | 
6 | CCCCCCCCOc1ccc(-c2nnc([C@@](C)(N)CO)s2)cc1C(F)(F)F |  |  |  | EC90 (Cynomolgus monkey): 16.2 ng/mL (≈ 0.0375 µM); Cmax [10]: 50.9 ng/mL; inhibition (INH) [11]: Not Active; Stability (Liver microsome [12]): Stable; Stability (Liver microsome [13]): Stable; Stability [14]: Stable; Cp (Plasma [15]): 10 ng/mL; Activity (Mus musculus [16]): Active; Activity (Mus musculus [17]): Dose-dependent effect; Cp (Plasma [18]): 10 ng/mL; permeability (Caco-2): permeable; solubility [19]: soluble; Cp (Plasma [20]): 10 ng/mL; Stability (Liver microsome [21]): Stable; Activity (Mus musculus [22]): Active
7 | CCCCCCCCCCCCC/C=C/[C@@H](O)[C@@H](N)COP(=O)(O)O |  |  |  | pEC50 [4]: 8.40; pEC50 [6]: 8.37; pEC50 [7]: 7.89
8 | CCCCCCCCOc1ccc(-c2cnc([C@@](C)(N)CO)s2)cc1C(F)(F)F |  |  |  | inhibition (INH) [11]: Not Active; Stability (Liver microsome [12]): Stable; Stability (Liver microsome [13]): Stable; Stability [14]: Stable; Activity (Mus musculus [16]): Active; Activity (Mus musculus [17]): Dose-dependent effect; permeability (Caco-2): permeable; solubility [19]: soluble; Activity (Mus musculus [22]): Active
9 | CCCCCCCCOc1ccc(-c2noc([C@@](C)(N)COP(=O)(O)O)n2)cc1C(F)(F)F | 1.9 | > 10 | > 5260 | 
10 | CCCCCCCCOc1ccc(-c2nnc([C@@](C)(N)COP(=O)(O)O)o2)cc1C(F)(F)F | 27.8 | > 10 | > 359 | 
11 | CCCCCCCCOc1ccc(-c2cnc([C@@](C)(N)COP(=O)(O)O)s2)cc1C(F)(F)F | 0.18 | 0.3 | 1670 | pEC50 [4]: < 5.52; pEC50 [5]: 8.70; pEC50 [6]: 9.36; pEC50 [7]: 8.44; Activity (Mus musculus [8]): 98%; Ratio EC50 (Homo sapiens [9]): > 6800
12 | N[C@@H](COP(=O)(O)O)c1nc(-c2ccc(OCc3ccc(-c4ccccc4)cc3)c(C(F)(F)F)c2)c[nH]1 | 0.3 | 0.65 | 2170 | 
13 | C[C@](N)(COP(=O)(O)O)c1nc(-c2ccc(OCc3ccc(-c4ccccc4)cc3)c(C(F)(F)F)c2)cs1 | 1.6 | > 10 | > 6250 | 
14 | CCCCCCCCOc1ccc(-c2cnc([C@@](C)(N)COP(=O)(O)O)[nH]2)cc1C(F)(F)F | 1.46 | 4.87 | 3340 | 
15 | Cc1oc([C@@](C)(N)COP(=O)(O)O)nc1-c1ccc(OCc2ccc(-c3ccccc3)cc2)c(C(F)(F)F)c1 | 2.1 | > 10 | > 5000 | 
16 | CCCCCCCCc1ccc(CCC(N)(CO)CO)cc1 |  |  |  | Selectivity ratio (Homo sapiens [23]): 30; Activity (Mus musculus [22]): Active
17 | CCCCCCCCOc1ccc(-c2cc([C@@](C)(N)COP(=O)(O)O)[nH]n2)cc1C(F)(F)F | 0.83 | > 10 | > 12000 | 
18 | Cc1nc([C@@](C)(N)COP(=O)(O)O)[nH]c1-c1ccc(OCc2ccc(-c3ccccc3)cc2)c(C(F)(F)F)c1 | 0.65 | 7.67 | 11900 | 
19 | C[C@](N)(COP(=O)(O)O)c1nnc(-c2ccc(OCc3ccc(-c4ccccc4)cc3)c(C(F)(F)F)c2)s1 | 1.77 | 4.5 | 2540 | 
20 | C[C@](N)(COP(=O)(O)O)c1ncc(-c2ccc(OCc3ccc(-c4ccccc4)cc3)c(C(F)(F)F)c2)o1 | 1.1 | > 10 | > 8000 | 
